In the NIST ThermoML archive (doi:10.1021/je1002237):

Assay: xn = mol fraction of the nth substance listed
Details: 101 kPa, Liquid

CCOS(=O)(=O)[O-].CCn1cc[n+](C)c1 [1-ethyl-3-methylimidazolium ethyl sulfate] + CO
mass density [kg/m3]
Details | 278.15 K | 283.15 K | 288.15 K | 293.15 K | 298.15 K | 303.15 K | 308.15 K
x2 = 0 | 1251.04 | 1247.5 | 1244.04 | 1240.66 | 1237.27 | 1233.89 | 1230.51
x2 = 0.005 | 1250.51 | 1246.96 | 1243.52 | 1240.13 | 1236.74 | 1233.36 | 1229.98
x2 = 0.0097 | 1250.12 | 1246.57 | 1243.14 | 1239.75 | 1236.36 | 1232.97 | 1229.59
x2 = 0.015 | 1249.8 | 1246.24 | 1242.81 | 1239.42 | 1236.02 | 1232.63 | 1229.24
x2 = 0.0252 | 1248.78 | 1245.23 | 1241.82 | 1238.42 | 1235.02 | 1231.63 | 1228.25
x2 = 0.0403 | 1247.44 | 1243.88 | 1240.48 | 1237.07 | 1233.67 | 1230.27 | 1226.88
x2 = 0.0598 | 1245.64 | 1242.13 | 1238.72 | 1235.31 | 1231.89 | 1228.49 | 1225.09
x2 = 0.08 | 1243.77 | 1240.29 | 1236.86 | 1233.44 | 1230.02 | 1226.61 | 1223.2
x2 = 0.1001 | 1241.79 | 1238.35 | 1234.91 | 1231.47 | 1228.05 | 1224.63 | 1221.22
x2 = 0.15 | 1236.8 | 1233.34 | 1229.88 | 1226.42 | 1222.98 | 1219.54 | 1216.12
x2 = 0.2 | 1231.24 | 1227.75 | 1224.26 | 1220.78 | 1217.32 | 1213.87 | 1210.42
x2 = 0.3 | 1218.1 | 1214.56 | 1211.02 | 1207.5 | 1203.99 | 1200.5 | 1197.01
x2 = 0.4 | 1201.9 | 1198.3 | 1194.72 | 1191.15 | 1187.59 | 1184.05 | 1180.51
x2 = 0.4999 | 1180.84 | 1177.18 | 1173.54 | 1169.91 | 1166.29 | 1162.69 | 1159.1
x2 = 0.6 | 1153.55 | 1149.82 | 1146.1 | 1142.4 | 1138.71 | 1135.03 | 1131.37
x2 = 0.7 | 1115.57 | 1111.73 | 1107.91 | 1104.11 | 1100.31 | 1096.53 | 1092.76
x2 = 0.8 | 1059.76 | 1055.79 | 1051.82 | 1047.87 | 1043.92 | 1039.98 | 1036.05
x2 = 0.9 | 971.1 | 966.89 | 962.68 | 958.49 | 954.29 | 950.1 | 945.91
x2 = 0.95 | 902.84 | 898.44 | 894.05 | 889.67 | 885.26 | 880.86 | 876.46
x2 = 0.98 | 849.24 | 844.69 | 840.15 | 835.63 | 831.05 | 826.49 | 821.91

CCOS(=O)(=O)[O-].CCn1cc[n+](C)c1 [1-ethyl-3-methylimidazolium ethyl sulfate] + CC1COC(=O)O1
x2 = 0
Details | mass density [kg/m3]
278.15 K | 1251.04
283.15 K | 1247.5
288.15 K | 1244.04
293.15 K | 1240.66
298.15 K | 1237.27
303.15 K | 1233.89
308.15 K | 1230.51

CC#N [acetonitrile] + CCOS(=O)(=O)[O-].CCn1cc[n+](C)c1
x1 = 1
Details | mass density [kg/m3]
278.15 K | 798.01
283.15 K | 792.69
288.15 K | 787.33
293.15 K | 781.97
298.15 K | 776.56
303.15 K | 771.14
308.15 K | 765.68
